For data set [1], the system named is Pseudomonas aeruginosa (ATCC 27853). Put plainly: Growth inhibition test in broth medium (MIC). Type of data set: cell-based. The note with it: 18 hrs at 37° C., LB medium.
Method: (§5) The following strains were used for the antibacterial activity tests: Escherichia coli (ATCC 25922 and ATCC 35218), Staphylococcus aureus (ATCC 25923), Enterococcus faecalis (ATCC 29212), Bacillus megaterium and Pseudomonas aeruginosa (ATCC 27853).
(§6) For each strain, a standard inoculum of 10^5 to 10^6 bacteria/mL (exponential growth phase) was prepared. To this end, a colony isolated on LB agar previously inoculated with one of the strains was cultured in 10 mL of LB broth medium. Liquid cultures were then incubated for 2 to 3 hrs at 37° C. with shaking for the bacteria to reach exponential growth phase. Each bacterial suspension was diluted in LB medium to an OD630nm of 0.01 which corresponds to a concentration of 10^5-10^6 cfu/mL (cfu: colony forming unit).
(§7) The minimum inhibitory concentration (MIC) of each peptide was determined by a test of growth inhibition in broth medium. […] The test was performed in a sterile 96-well microtiter plate. A series of increasing concentrations of each peptide (1 to 400 μM) was first prepared in sterile MilliQ water containing 5% dimethyl sulphoxide (DMSO). […] 50 μL of peptide were aliquoted into each well with 50 μL of bacterial suspension (10^5-10^6 cfu/mL). The microtiter plate was then incubated for 18 hrs at 37° C. with shaking. Bacterial growth was determined by measuring OD at 630 nm (turbidity) on a plate reader. […]
Data set [2] has as its system Gram-negative strains. To be noted: summary in text for all Gram-negative strains tested.
Method: as §5, §6, §7
The test system of data set [3] is Saccharomyces cerevisiae. To be noted: YPD medium, 30° C.
Method: (§8) The minimum inhibitory concentration (MIC) of each peptide was determined by a test of growth inhibition in broth medium. […] The test was performed in a sterile 96-well microtiter plate. A series of increasing concentrations of each peptide (1 to 400 μM) was first prepared in sterile MilliQ water containing 5% dimethyl sulphoxide (DMSO). […] 50 μL of peptide were aliquoted into each well with 50 μL of bacterial suspension (10^5-10^6 cfu/mL). The microtiter plate was then incubated for 18 hrs at 37° C. with shaking. Bacterial growth was determined by measuring OD at 630 nm (turbidity) on a plate reader. Tests were carried out in triplicate for each peptide concentration.
(§9) These strains were first grown on YPD agar for a minimum of 48 hrs. Yeast suspensions were then prepared, exactly as for bacteria, and adjusted to 10^5-10^6 cfu/mL in YPD broth medium.
(§10) The antifungal activity test corresponds to the growth inhibition test in broth medium used for the bacteria (see above) in which LB medium was replaced by YPD medium. Fungal strains were incubated at 30° C.
In data set [4] the test system is Candida albicans (ATCC 90028). The note with it: YPD medium, 30° C.
Method: as §8, §9, §10
Data set [5] relates to human monocyte cell line THP-1. The note with it: THP-1, 72 hrs, MTT test (FIG. 3), at antimicrobial concentrations. In general terms: Tetrazolium assays rely on reduction of a dye to a coloured formazan, in cell work by metabolically active cells.
Method: The cytotoxic activity of the antimicrobial peptides was determined on a human monocyte cell line THP-1. Cells were cultured in RPMI medium (10% FCS, 100 U/mL penicillin, 100 μg/mL streptomycin) until reaching exponential growth phase. After counting in a Thoma counting chamber, cell density was adjusted to 6.25×10^5 cells/mL in RPMI 1640 medium. Five-fold concentrated solutions of antimicrobial peptides were prepared in this RPMI medium (300 to 4.7 μM).
Monocytes were aliquoted at 80 μL of cell suspension per well (corresponding to 5×10^4 monocytes/well or 5×10^5 cells/mL final) and mixed with 20 μL of peptide solution (60 to 0.94 μM final concentration). Negative and positive controls were carried out according to the same protocol as for the tests of anti-Leishmania activity. Experiments were done in triplicate for each peptide concentration. Cells were incubated at 37° C., in a 5% CO2 atmosphere for 72 hrs.
After 72 hours, the number of viable THP-1 cells was calculated indirectly by the MTT test (Mosmann, 1983). […] Blue formazan can be detected spectrophotometrically at 570 nm.
A 10 mg/mL MTT solution in PBS buffer (pH 7.4), filtered on a 0.45 μm filter, was aliquoted at 10 μL per well. Plates were then incubated for 4 hrs at 37° C. […] The OD at 570 nm of each well was then measured (Victor plate reader, PerkinElmer) to calculate the IC50.
Data set [6] is described as follows: Hemolytic test. Type of data set: cell-based. To be noted: erythrocytes (washed red blood cells), pH 7.4; human erythrocytes, 1 hr at 37° C., concentration inducing hemolysis of 50% of the cells; read-out: LC50 erythrocytes. On the procedure:
(§1) The hemolytic activity of the antimicrobial peptides was assessed using human erythrocytes from healthy donors. Red blood cell hemolysis is manifested by the release into the reaction medium of hemoglobin, the concentration of which is determined spectrophotometrically at 450 nm.
(§2) Red blood cells were separated from plasma and white blood cells by centrifugation of human blood (900 g, 10 min). The pellet containing red blood cells was washed three times with PBS buffer, pH 7.4. After counting on a Malassez cell, a stock solution of 2.10^7 red blood cells/mL was prepared in the same buffer. A series of concentrations of the peptides to be tested was prepared (1 to 200 μM).
(§3) The test was carried out as follows: 100 μL of the different peptide concentrations were added to 100 μL of the red blood cell suspension. After 1 hr of incubation at 37° C. followed by centrifugation (12,000 g, 15 sec), absorbance of the supernatant was measured at 450 nm. The negative control for this test (0% hemolysis) contained 100 μL of PBS buffer in place of the peptide solution. The positive control (100% hemolysis) contained 100 μL of 0.1% Triton in place of the peptide solution.
(§4) The LC50 value obtained is the mean of three experiments carried out in triplicate and corresponds to the peptide concentration inducing hemolysis of 50% of the cells.

Data set [7] relates to human erythrocytes. Briefly: Hemolytic test. The data set is classed as cell-based. The note with it: relative to temporin-SHa. On the procedure: as §1, §2, §3, §4
Data set [8] has as its system Bacillus megaterium. To be noted: 18 hrs at 37° C., LB medium.
Method: as §5, §6, §7
Data set [9] relates to Escherichia coli (ATCC 35218). The note with it: 18 hrs at 37° C., LB medium.
Method: as §5, §6, §7
For data set [10], the target named is Leishmania infantum promastigotes. The data set is classed as cell-based. To be noted: 72 hours at 26° C., luciferase luminescence (FIG. 2 B), read-out: IC50, promastigote form. The method, then:
The antiparasitic activity of the peptides was evaluated on two forms of the parasite Leishmania infantum, the promastigote form and the amastigote form.
The tests of anti-Leishmania activity were carried out with a Leishmania infantum cell line αNEO-αLUC This cell line was obtained by transforming Leishmania infantum strain MHOM/MA/67/ITMAP-263 with the vector pGM αNEO-αLUC containing the luciferase reporter gene (LUC) and the neomycin resistance gene (NEO) such as described in Roy et al. (2000). It was maintained in culture in its two forms, promastigote and amastigote.
Leishmania infantum promastigotes were maintained at 26° C. by one or two weekly passages depending on the number of parasites in the inoculum, in SDM 79 medium supplemented with 10 to 20% decomplemented foetal calf serum and […] porcine haemin and in the presence of 100 U/mL penicillin and 100 μg/mL streptomycin (Brun & Shonenberger, 1979). […] Cell densities were determined by flow cytometry in the presence of propidium iodide on a Facscan cytometer (Excalibur, Becton-Dickinson, Ivry, France).
Emitted luminescence was measured with a luminescence plate reader (Victor, PerkinElmer). […]
The percentage growth was calculated according to the following formula: % growth=[(L mean−bgd)peptide×100]/(L mean−bgd)control […]

Data set [11] deals with Enterococcus faecalis (ATCC 29212). To be noted: 18 hrs at 37° C., LB medium.
Method: as §5, §6, §7
The subject of data set [12] is Staphylococcus aureus (ATCC 25923). The note with it: 18 hrs at 37° C., LB medium.
Method: as §5, §6, §7
Data set [13] relates to Escherichia coli (ATCC 25922). The note with it: 18 hrs at 37° C., LB medium.
Method: as §5, §6, §7
For data set [14], the system named is Escherichia coli ML-35p.
Method: as §6, §8
The growth inhibition negative control was obtained by replacing the solution containing the peptide with 50 μL of sterile MilliQ water containing 5% DMSO. […]
Data set [15] relates to Candida parapsilosis (ATCC 22019). Put plainly: Antifungal growth inhibition test in YPD broth (MIC). Type of data set: cell-based. The note with it: YPD medium, 30° C. On the procedure:
Fungal strains were incubated at 30° C.

Entries after “also recorded” stand apart in the source; their conditions may differ. Ends that are not written are not given here.

For the substance FLKGIVGMLGKLF-NH2 [[K^3]temporin-SHa], the MIC (usually the least concentration at which growth counts as inhibited) in data set [1] was determined as 3 µM; in data set [3] it was 6.25 µM; in data set [4], 12.5 µM; in [8], 1.5 µM; in data set [9] it was 3 µM; in data set [11], 10 µM. The MIC in [12], in [13] and in data set [14] was 3 µM in each case. Moreover, the “MIC, all Gram-negative strains tested” value in data set [2] stood at 3 µM. Also, the “Cytotoxic effect on monocytes” value in data set [5] was “not cytotoxic”. Besides, the HC50 at 1 hr in data set [6] came to 50 µM. For the same substance, the “Change in hemolytic activity as compared with temporin-SHa” value in data set [7] is given as “twofold decrease; also recorded: twofold reduction”. The IC50 (commonly the midpoint of a concentration-inhibition curve) in [10] was ~10 µM.

Consider “FLSGIVGMLGKLF-NH2 [temporin-SHa, F-L-S-G-I-V-G-M-L-G-K-L-F]”, for which the MIC in data set [1] came out at 31.25 µM; in data set [3], 7.9 µM; in [4], 15 µM; in data set [8] it was 2.5 µM; in data set [9] it was 10 µM; in data set [11], 10 µM. The MIC in [12] was 3 µM; in data set [13] it was 10 µM; in data set [15], 31.25 µM; in data set [14] it was 6.25 µM. Moreover, the “Cytotoxic effect on monocytes” value in data set [5] is on record as “not cytotoxic”. Moreover, the HC50 at 1 hr in data set [6] came to 25 µM. Besides, in [10], the IC50 is ~20 µM.

The values above are taken from patent US9522942B2, “Analogs of temporin-SHa and uses thereof” (UNIVERSITE PIERRE ET MARIE CURIE (PARIS 6), priority 2009, dated 2016).
